Results taken from PubChem BioAssay AID1645868 (Buhrlage Lab, Dana-Farber Cancer Institute and Novartis …, 2021).
pIC50: −log10 of the molar value. Activity calls are given as the source filed them.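 How the source made its calls: active means maximal percent inhibition of the deubiquitinase OTUD3 of at least 30% across the tested doses; inactive means the rest.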 Positions of bridges follow the written chain, without caps; N, C: chain ends. Residues, ends and D or L forms follow the SMILES beside them. ξ: configuration not given here. *: point of attachment. Pentadecanoyl(3ξ-OH,15-Gua) = N=C(N)NCCCCCCCCCCCCC(O)CC(=O)*

Molecular target: OTU domain-containing protein 3 (Homo sapiens) (UniProt Q5T2D3)
Sequence (Q5T2D3 whole entry, looked up, the tested form may be a part): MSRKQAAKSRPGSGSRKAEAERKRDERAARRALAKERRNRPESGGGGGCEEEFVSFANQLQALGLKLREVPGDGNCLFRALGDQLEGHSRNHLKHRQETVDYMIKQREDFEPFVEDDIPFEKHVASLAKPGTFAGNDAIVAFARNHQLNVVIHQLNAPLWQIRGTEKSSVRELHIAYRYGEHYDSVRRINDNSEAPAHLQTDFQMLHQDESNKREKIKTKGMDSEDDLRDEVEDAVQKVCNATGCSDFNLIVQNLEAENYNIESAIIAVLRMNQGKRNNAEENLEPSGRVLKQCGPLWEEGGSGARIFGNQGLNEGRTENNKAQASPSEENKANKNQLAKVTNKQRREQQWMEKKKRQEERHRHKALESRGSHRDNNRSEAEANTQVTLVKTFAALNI
Experiment: Validation of screening hits, potency titration, in vitro enzymatic, OTU domain-containing protein 3 DUB inhibitors (AID 1645868)
Settings: purified OTUD3, ubiquitin-rhodamine cleavage fluorescence, 2 h

Structure (SMILES) | pIC50 | IC50
CC1NC(=O)C(CC(N)=O)NC(=O)C(C(C)O)NC(=O)C(Cc2ccc(O)cc2)NC(=O)C(C(C)C)NC(=O)C(NC(=O)CC(O)CCCCCCCCCCCCN=C(N)N)C(C)OC1=O (stereo not given) ({Pentadecanoyl(3ξ-OH,15-Gua)}-TVYTNA; ester 1-C; configuration not given here) | 4.44 | –
CC(=O)c1cc2c(=O)c3c(C(=O)O)c(O)c(O)cc3oc2c(C(C)=O)c1-c1coc2cc(O)c(O)c(C(=O)O)c2c1=O | 6.43 | –
CC[C@H](C)C[C@H]1CC[C@](O)([C@](C)(O)C(=O)N[C@@H]2C(=O)N3NCCC[C@@H]3C(=O)N(O)[C@@H](C)C(=O)NCC(=O)N3NCCC[C@H]3C(=O)N(O)[C@H](C)C(=O)O[C@H]2C(C)C)O[C@@H]1C | 5.66 | –
C[C@H](NC(=O)Cc1ccccc1F)c1nc2cc(-c3ccccc3F)ncn2n1 | – | > 50 µM (inactive)
O=C(CN1CCCCC1)Nc1nnc(-c2ccc([N+](=O)[O-])cc2)s1 | 4.72 | –
COc1ccc(CCC(=O)Nc2ncc(C)s2)cc1OC | – | > 50 µM (inactive)
Fc1cccc(Cn2cc(-c3noc(-c4cccnc4)n3)nn2)c1 | – | > 50 µM (inactive)
CCC(C)NC(=O)Cn1c(=O)n(-c2ccccc2)c(=O)c2ccc(C(=O)NCc3ccco3)cc21 (stereo not given) | 4.45 | –
O=C(CN1C(=O)COc2ccc(Cl)cc21)Nc1cccc2ncccc12 | – | > 50 µM (inactive)
COc1ccc(NC(=O)Nc2cccc(-c3nnc(-c4ccccc4)o3)c2)cc1OC | 4.41 | –
O=C(O)c1ccccc1C(=O)Nc1ccc(SC(C(=O)Nc2ccccc2)c2ccccc2)cc1 (stereo not given) | – | > 50 µM (inactive)
O=C(CNc1nc(Nc2ccccc2F)nc(Nc2ccccc2F)n1)Nc1ccccc1 | 4.38 | –
O=C(Cc1c[nH]c2ccccc12)Nc1nc2ccccc2s1 | – | > 50 µM (inactive)
N#Cc1cccc(S(=O)(=O)N2CCc3nc4ccccc4n3CC2)c1 | 4.55 | –
CCOc1ccccc1C(=O)Nc1ccc2c(c1)Sc1ncccc1C(=O)N2C | – | > 50 µM (inactive)
COc1c(Cl)ccc2c(=O)c3c(O)c4c5c(c3oc12)OCO[C@H]5[C@@H](OC)c1cc2c(c(O)c1-4)C(=O)N(C)[C@H](OC)[C@@H]2O | – | > 50 µM (inactive)
O=C(c1ccc(COc2cccc3ccccc23)o1)N1CCC(Cc2ccccc2)CC1 | – | > 50 µM (inactive)
O=C(Nc1nc2c(s1)COCC2)c1cc(-c2ccco2)[nH]n1 | – | > 50 µM (inactive)
CSc1cccc(C(=O)Nc2ccc(-c3nc4ccccc4[nH]3)cc2)c1 | 4.66 | –
COc1cccc(NC(=O)C2CCN(C(=O)c3cc(-c4cccnc4)n[nH]3)CC2)c1 | – | > 50 µM (inactive)
Cc1c(OCC(=O)Nc2nc3ccccc3[nH]2)ccc2c3c(c(=O)oc12)CCC3 | 5.57 | –
COc1cnc(-c2ccccn2)nc1Sc1ccc(C)cc1 | – | > 50 µM (inactive)

Structure (SMILES) | pIC50 | IC50
Cc1cc(C)nc(-n2nc(C)c3c2NC(=O)CSC3c2ccc(F)cc2F)n1 (stereo not given) | 4.33 | –
N#Cc1cc2c(nc1SCC(=O)NCc1ccccc1)CCCC2 | – | > 50 µM (inactive)
CN(C)c1cc(-n2cnc(C(=O)NCc3ccccc3Cl)c2)ncn1 | 4.52 | –
O=c1[nH]c2ccccc2cc1CN(Cc1ccco1)S(=O)(=O)c1ccc(F)cc1 | – | > 50 µM (inactive)
O=c1[nH]c(-c2ccccn2)nc2c1CCN(Cc1cnn(-c3ccccc3)c1)C2 | – | > 50 µM (inactive)
CN1CC2CN(C(=O)c3ccc(F)cc3)CCN2Cc2ccccc21 (stereo not given) | – | > 50 µM (inactive)
COC(=O)c1cc(C)sc1NC(=O)c1cccc(OC)c1OC | – | > 50 µM (inactive)
COC(=O)c1ccc2c(=O)n(CCCCCC(=O)NCc3cccc(Cl)c3)c(=O)[nH]c2c1 | 5.49 | –
COc1cc(C)cc2c1C(=O)c1c(cc(O)c(Cl)c1O)C2=O | 5.68 | –
Cc1ccc(S(=O)(=O)Nc2ccccc2SCCS(=O)(=O)c2ccc(Cl)cc2)cc1 | – | > 50 µM (inactive)
O=C(Nc1cccc(N2CCCC2=O)c1)c1cccc2cccnc12 | – | > 50 µM (inactive)
CNc1nc2c(c(=O)n1C)CN(C(=O)Nc1cccc3ccccc13)CC2 | – | > 50 µM (inactive)
CCOC(=O)c1c(C)oc2nc(CSc3ccccc3)[nH]c(=O)c12 | – | > 50 µM (inactive)
Cc1ccc2c(c1)[C@]1(C(=O)N2)[C@@H](C(=O)c2ccccc2)[C@]2(C(=O)Nc3ccccc32)[C@@H]2CCCN21 | 4.60 | –
Nc1c(C(=O)c2cccs2)oc2nc(-c3ccccc3)cc(-c3ccco3)c12 | – | > 50 µM (inactive)
Cc1nc(C(=O)Nc2cccc(Cl)c2Cl)nn1-c1cc(Cl)cc(Cl)c1 | – | > 50 µM (inactive)
COc1ccc(CCNC(=O)c2cc3ccccc3s2)cc1OC | – | > 50 µM (inactive)
NS(=O)(=O)c1ccc(CNS(=O)(=O)c2ccc(-c3ccccn3)s2)cc1 | 4.61 | –
CCCc1nc2sc3c(N(CC)CC)ncnc3c2c2c1CCC2 | – | > 50 µM (inactive)
O=C1Nc2c(Cl)cc(Cl)cc2C1(O)c1sc(NC2CCCCC2)nc1-c1ccccc1 (stereo not given) | 4.53 | –
O=C1C[C@@H]2O[C@H](CNC(=O)[C@@H]3CN(CCN3C(=O)C3CCOCC3)C(=O)[C@@H]3C[C@@H](CN3Cc3ccc(F)c(F)c3)N1)[C@@H](O)[C@H]2O | – | > 50 µM (inactive)
COc1ccc2cc3c(nc2c1)OC(=O)N(CCc1cccc(F)c1)C3 | – | > 50 µM (inactive)

Structure (SMILES) | pIC50 | IC50
COc1ccc(Nc2nc3c(S(=O)(=O)c4ccc(C)cc4)nnn3c3ccsc23)c(OC)c1 | 4.40 | –
O=C(Cc1cccc2ccccc12)Nc1nc2ccc(F)cc2s1 | – | > 50 µM (inactive)
Cc1ccc(NC(=O)c2cnc(N3CCOCC3)nc2)cc1F | – | > 50 µM (inactive)
O=C1CC(c2ccco2)Cc2[nH]c(=O)c(-c3nc(-c4ccc(Cl)cc4)cs3)cc21 (stereo not given) | – | > 50 µM (inactive)
COc1ccc(NC(=O)CN2CCN(c3ccc(C(C)=O)cc3)CC2)cc1S(=O)(=O)N1CCCCC1 | – | > 50 µM (inactive)
CCc1nc2c(NC(=O)Nc3cccc(C(=O)OC)c3)cccn2n1 | – | > 50 µM (inactive)
CSc1ccccc1C(=O)Nc1sc2c(c1C(N)=O)CCC(C)C2 (stereo not given) | 4.65 | –
O=C(COc1ccc(Cl)cc1)Nc1noc(-c2ccccc2)n1 | 4.54 | –
CCc1ccc2c(c1)[C@]1(C(=O)N2)[C@@H]2C(=O)N(c3ccc(Cl)cc3Cl)C(=O)[C@@H]2[C@@H]2CCCN21 | – | > 50 µM (inactive)
Nc1ncnc2c1ncn2[C@@H]1O[C@H](CO)C[C@@H]1O | 4.48 | –
N#Cc1ccc(NC(=O)COC(=O)c2ccc3ccccc3n2)cc1 | – | > 50 µM (inactive)
Cc1ccc(C(=O)Nc2nc3n(n2)C(c2ccccc2)CC(=O)N3)cc1 (stereo not given) | 4.54 | –
COc1cc(NC(=O)c2cc(CN3CCOCC3)on2)cc(OC)c1 | – | > 50 µM (inactive)
COc1cc(OC)cc(C(=O)Nc2cnc(-c3ccccc3)nc2)c1 | – | > 50 µM (inactive)
CN(C)c1cccc(C(=O)Nc2cc(-c3cccnc3)no2)c1 | 4.45 | –
COc1ccccc1-c1nc(Cn2nnc(C(=O)Nc3cc(C)cc(C)c3)c2N)c(C)o1 | – | > 50 µM (inactive)
O=C(NCc1ccc(-c2nc3cnccc3o2)cc1)c1cc2ccccc2o1 | – | > 50 µM (inactive)
COc1ccc(N(CC(=O)Nc2cccc(F)c2)S(=O)(=O)c2ccc(OC)c(OC)c2)cc1 | 4.65 | –
c1ccc(-c2ccc(NCc3ccc4c(c3)OCO4)nn2)cc1 | 4.64 | –
CCc1ccc(NC(=O)Cc2nnc3cc(-c4nc(C)no4)ccn23)cc1 | 4.53 | –
N#Cc1ccccc1Cn1c(=O)n(CCCCC(=O)NCCc2ccccc2)c(=O)c2ccccc21 | 4.63 | –
